In patent publication US11091479B2, “Triazolopyridin-3-ones or their salts and pharmaceutical compositions comprising the same” (YUHAN CORPORATION, priority 2018, dated 2021):
Where a name gives a salt, the structure may show the parent alone.

Key:
Type in all cases: biochemical
[1] = target: T1, recombinant human MAO-A (monoamine oxidase-A) (Homo sapiens, UniProt P21397); assay: Activity on recombinant human MAO-A, method similar to VAP-1 assay, 0.5 mM tyramine substrate; conditions: read-out: Inhibitory Activity (IC50, nM) MAO-A
T1 construct: purchased Sigma-Aldrich
T1 sequence (P21397 1-527): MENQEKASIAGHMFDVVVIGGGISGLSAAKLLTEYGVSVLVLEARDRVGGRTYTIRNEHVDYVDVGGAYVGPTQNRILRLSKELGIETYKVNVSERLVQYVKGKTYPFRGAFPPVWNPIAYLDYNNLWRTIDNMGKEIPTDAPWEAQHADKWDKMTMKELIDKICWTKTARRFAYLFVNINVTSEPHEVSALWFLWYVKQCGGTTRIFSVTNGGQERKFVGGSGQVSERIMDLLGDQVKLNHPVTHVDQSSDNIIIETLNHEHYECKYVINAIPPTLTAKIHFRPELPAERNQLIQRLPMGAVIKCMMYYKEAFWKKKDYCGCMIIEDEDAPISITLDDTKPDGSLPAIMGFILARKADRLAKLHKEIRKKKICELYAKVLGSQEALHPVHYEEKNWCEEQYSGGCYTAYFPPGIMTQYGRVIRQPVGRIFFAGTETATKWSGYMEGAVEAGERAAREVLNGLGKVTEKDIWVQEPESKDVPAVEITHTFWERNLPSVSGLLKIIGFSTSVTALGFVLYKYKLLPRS
Method in brief: (§1)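 Amplex Red/HRP-coupled H2O2 fluorescence assay run as for VAP-1: enzyme in 50 mM sodium phosphate pH 7.4 preincubated with compound 30 min at 37 °C, then substrate (putrescine for DAO, benzylamine for MAO-B, tyramine for MAO-A) added with 200 uM Amplex Red, 1 U/mL HRP. Signal rate over 1-2 h; IC50 from 4-parameter logistic fit.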

[2] = target: T2, recombinant human MAO-B (monoamine oxidase-B) (Homo sapiens, UniProt P27338); assay: Activity on recombinant human MAO-B, method similar to VAP-1 assay, 1 mM benzylamine substrate; conditions: read-out: Inhibitory Activity (IC50, nM) MAO-B
T2 construct: purchased Sigma-Aldrich
T2 sequence (P27338 1-520): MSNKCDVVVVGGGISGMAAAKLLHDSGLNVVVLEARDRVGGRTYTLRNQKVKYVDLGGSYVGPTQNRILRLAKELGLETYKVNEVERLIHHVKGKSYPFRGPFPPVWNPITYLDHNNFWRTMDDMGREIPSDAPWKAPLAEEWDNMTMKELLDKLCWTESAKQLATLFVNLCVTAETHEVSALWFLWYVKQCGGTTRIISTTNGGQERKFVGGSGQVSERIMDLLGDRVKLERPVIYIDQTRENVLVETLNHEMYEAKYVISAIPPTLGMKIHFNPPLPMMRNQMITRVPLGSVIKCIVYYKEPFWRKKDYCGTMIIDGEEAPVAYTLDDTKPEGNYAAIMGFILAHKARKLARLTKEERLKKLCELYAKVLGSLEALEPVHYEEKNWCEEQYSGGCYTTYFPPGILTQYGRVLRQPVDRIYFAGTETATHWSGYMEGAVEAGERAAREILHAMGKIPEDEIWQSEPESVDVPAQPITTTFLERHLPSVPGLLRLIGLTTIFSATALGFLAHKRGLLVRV
Method in brief: as §1

[3] = target: T3, recombinant human DAO (diamine oxidase) (Homo sapiens, UniProt P19801); assay: Activity on recombinant human DAO, method similar to VAP-1 assay, 1 mM putrescine substrate; conditions: read-out: Inhibitory Activity (IC50, nM) DAO
T3 construct: purchased R&D systems
T3 sequence (P19801 20-751): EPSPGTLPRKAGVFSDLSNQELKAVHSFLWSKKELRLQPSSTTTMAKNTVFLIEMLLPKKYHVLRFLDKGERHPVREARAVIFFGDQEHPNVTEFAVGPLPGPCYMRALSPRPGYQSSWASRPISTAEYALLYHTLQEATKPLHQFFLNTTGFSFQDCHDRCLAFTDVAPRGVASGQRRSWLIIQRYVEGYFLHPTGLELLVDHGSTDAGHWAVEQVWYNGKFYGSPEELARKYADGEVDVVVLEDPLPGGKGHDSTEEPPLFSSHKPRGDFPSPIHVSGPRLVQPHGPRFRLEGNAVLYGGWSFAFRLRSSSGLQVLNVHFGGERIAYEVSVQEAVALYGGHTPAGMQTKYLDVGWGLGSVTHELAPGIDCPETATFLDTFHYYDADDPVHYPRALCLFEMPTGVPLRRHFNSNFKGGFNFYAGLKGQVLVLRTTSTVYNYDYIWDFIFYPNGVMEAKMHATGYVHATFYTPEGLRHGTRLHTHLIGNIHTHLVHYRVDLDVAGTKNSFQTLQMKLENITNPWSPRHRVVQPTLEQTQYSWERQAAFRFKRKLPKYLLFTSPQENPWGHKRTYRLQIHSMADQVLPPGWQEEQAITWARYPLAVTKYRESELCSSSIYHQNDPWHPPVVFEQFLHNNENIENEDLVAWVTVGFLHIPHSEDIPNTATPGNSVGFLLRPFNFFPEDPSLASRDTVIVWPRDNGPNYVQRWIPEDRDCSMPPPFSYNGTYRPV
Method in brief: as §1

recombinant human VAP-1 = target: T4, recombinant human VAP-1 (Homo sapiens, UniProt Q16853); assay: Activity on recombinant human VAP-1, HRP-coupled Amplex Red hydrogen peroxide assay, benzylamine substrate; conditions: 30 min incubation at 37° C., 1 mM benzylamine, read-out: Inhibitory Activity (IC50, nM) human VAP-1
T4 construct: purchased R&D systems
T4 sequence (Q16853 1-763): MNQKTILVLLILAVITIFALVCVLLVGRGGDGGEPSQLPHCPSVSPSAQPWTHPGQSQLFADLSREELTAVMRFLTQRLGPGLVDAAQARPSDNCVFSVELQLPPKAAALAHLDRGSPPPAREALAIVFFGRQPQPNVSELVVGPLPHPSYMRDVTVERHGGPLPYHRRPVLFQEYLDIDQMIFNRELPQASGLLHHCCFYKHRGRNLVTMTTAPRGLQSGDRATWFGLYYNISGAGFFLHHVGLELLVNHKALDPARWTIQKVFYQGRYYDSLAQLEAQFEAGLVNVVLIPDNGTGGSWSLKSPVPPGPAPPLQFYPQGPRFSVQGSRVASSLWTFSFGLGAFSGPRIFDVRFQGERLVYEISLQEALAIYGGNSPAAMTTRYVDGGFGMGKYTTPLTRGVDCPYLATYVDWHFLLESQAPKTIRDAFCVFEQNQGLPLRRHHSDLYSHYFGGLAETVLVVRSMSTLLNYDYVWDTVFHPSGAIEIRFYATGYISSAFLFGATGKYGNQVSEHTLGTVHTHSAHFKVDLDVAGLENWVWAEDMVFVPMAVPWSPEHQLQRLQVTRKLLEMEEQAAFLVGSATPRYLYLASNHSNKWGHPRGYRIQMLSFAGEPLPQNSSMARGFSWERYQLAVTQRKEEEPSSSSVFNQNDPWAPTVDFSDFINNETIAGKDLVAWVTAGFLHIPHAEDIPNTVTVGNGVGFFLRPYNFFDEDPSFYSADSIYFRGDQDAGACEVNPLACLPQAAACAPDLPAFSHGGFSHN
Method in brief: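 Recombinant human VAP-1 in 50 mM sodium phosphate pH 7.4 preincubated with compound for 30 min at 37 °C, then 1 mM benzylamine, 200 uM Amplex Red and 1 U/mL HRP added. Resorufin fluorescence (ex 544/em 590 nm) followed over 1-2 h; % signal-rate decrease vs DMSO control, 8-point 4-parameter fit for IC50.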

Structure (SMILES) | IC50 [1] | IC50 [2] | IC50 [3] | IC50 (recombinant human VAP-1)
NCC(Cn1nc2cc(C#Cc3ccc4c(c3)CCC(=O)N4)ccn2c1=O)=C(F)F [Example 62, 6-[2-[2-[2-(aminomethyl)-3,3-difluoro-allyl]-3-oxo-[1,2,4]triazolo[4,3-a]pyridin-7-yl]ethynyl]-3,4-dihydro-1H-quinolin-2-one trifluoroacetate] | > 100000 nM | 14000 nM | 150 nM | 0.2 nM
NC/C(=C\F)Cn1nc2ccc(-c3ccc4nonc4c3)cn2c1=O [Example 16, 2-[(2E)-2-(aminomethyl)-3-fluoroprop-2-en-1-yl]-6-(2,1,3-benzoxadiazol-5-yl)[1,2,4]triazolo[4,3-a]pyridin-3(2H)-one trifluoroacetate] | 10200 nM | 52 nM | < 100 nM | 4.5 nM
NC/C(=C\F)Cn1nc2cc(-c3ccc4c(c3)NC(=O)CO4)ccn2c1=O [Example 42, 6-[2-[(2E)-2-(aminomethyl)-3-fluoroprop-2-en-1-yl]-3-oxo-2,3-dihydro[1,2,4]triazolo[4,3-a]pyridin-7-yl]-2H-1,4-benzoxazine-3 (4H)-one hydrochloride] | 5400 nM | 1400 nM | 1 nM | 0.3 nM
NC/C(=C\F)Cn1nc2cc(C3=CCNCC3)ccn2c1=O [Example 34, 2-[(2E)-2-(aminomethyl)-3-fluoroprop-2-en-1-yl]-7-(1,2,3,6-tetrahydropyridin-4-yl)[1,2,4]triazolo[4,3-a]pyridin-3(2H)-one dihydrochloride] | > 100000 nM | > 100000 nM | 1 nM | 2 nM
CS(=O)(=O)c1ccc(-c2ccc3nn(C/C(=C/F)CN)c(=O)n3c2)cc1 [Example 3, 2-[(2E)-2-(aminomethyl)-3-fluoroprop-2-en-1-yl]-6-[4-(methylsulfonyl)phenyl][1,2,4]triazolo[4,3-a]pyridin-3(2H)-one trifluoroacetate] | > 100000 nM | 231 nM | < 100 nM | 3.6 nM
NC/C(=C\F)Cn1nc2cc(-c3ccc(C(F)(F)F)nc3)ccn2c1=O [Example 30, 2-[(2E)-2-(aminomethyl)-3-fluoroprop-2-en-1-yl]-7-[6-(trifluoromethyl)pyridin-3-yl][1,2,4]triazolo[4,3-a]pyridin-3(2H)-one hydrochloride] | 68000 nM | 8.4 nM | 1.1 nM | 0.3 nM
NC/C(=C\F)Cn1nc2ccc(-c3ccc4c(c3)OCCO4)cn2c1=O [Example 13, 2-[(2E)-2-(aminomethyl)-3-fluoroprop-2-en-1-yl]-6-(2,3-dihydro-1,4-benzodioxin-6-yl)[1,2,4]triazolo[4,3-a]pyridin-3(2H)-one trifluoroacetate] | > 100000 nM | 15 nM | < 100 nM | 4.8 nM
NC/C(=C\F)Cn1nc2cc(-c3ccc4c(c3)NC(=O)OC4)ccn2c1=O [Example 41, 7-[2-[(2E)-2-(aminomethyl)-3-fluoroprop-2-en-1-yl]-3-oxo-2,3-dihydro[1,2,4]triazolo[4,3-a]pyridin-7-yl]-1,4-dihydro-2H-3,1-benzoxazin-2-one hydrochloride] | 6800 nM | 730 nM | 1.3 nM | 0.3 nM
Cc1cc(-c2ccn3c(=O)n(C/C(=C/F)CN)nc3c2)cc2c1NC(=O)CC2 [Example 43, 6-[2-[(2E)-2-(aminomethyl)-3-fluoroprop-2-en-1-yl]-3-oxo-2,3-dihydro[1,2,4]triazolo[4,3-a]pyridin-7-yl]-8-methyl-3,4-dihydroquinolin-2(1H)-one hydrochloride] | > 100000 nM | 140 nM | 9.6 nM | 0.5 nM
NCC(Cn1nc2cc(C#Cc3ccc4c(c3)NCCO4)ccn2c1=O)=C(F)F [Example 59, 2-[2-(aminomethyl)-3,3-difluoro-allyl]-7-[2-(3,4-dihydro-2H-1,4-benzoxazin-6-yl)ethynyl]-[1,2,4]triazolo[4,3-a]pyridin-3-one ditrifluoroacetate] | > 100000 nM | 2700 nM | 9000 nM | 1.8 nM
NC/C(=C\F)Cn1nc2cc(-c3ccc(-c4cnon4)cc3)ccn2c1=O [Example 27, 2-[(2E)-2-(aminomethyl)-3-fluoroprop-2-en-1-yl]-7-[4-(1,2,5-oxadiazol-3-yl)phenyl][1,2,4]triazolo[4,3-a]pyridin-3(2H)-one hydrochloride] | 1450 nM | 67 nM | 1.8 nM | 0.6 nM
NCC(Cn1nc2cc(C#Cc3cnc4c(c3)OCCN4)ccn2c1=O)=C(F)F [Example 61, 2-[2-(aminomethyl)-3,3-difluoro-allyl]-7-[2-(3,4-dihydro-2H-pyrido[3,2-b][1,4]oxazin-7-yl)ethynyl]-[1,2,4]triazolo[4,3-a]pyridin-3-one ditrifluoroacetate] | > 100000 nM | 37000 nM | 220 nM | 0.6 nM
CCn1cc(-c2ccn3c(=O)n(CC(CN)=C(F)F)nc3c2)cn1 [Example 55, 2-[2-(aminomethyl)-3,3-difluoro-allyl]-7-(1-ethylpyrazol-4-yl)-[1,2,4]triazolo[4,3-a]pyridin-3-one trifluoroacetate] | > 100000 nM | 5100 nM | 1800 nM | 0.4 nM
